A value given as a limit tells only on which side of the number the result lay.

Broadly, the inhibition is the drop in the measured response relative to a control, in per cent. A higher inhibition goes with a strong effect.

Series [1] relates to complement alternative pathway (AP) activity. Description: AP inhibition in the AP Wieslab assay (PD), Phase 1 healthy volunteer studies. In kind it is in vivo, human. As for the experimental part: (§1) In addition, both dosage regimens provided complete (>90%) and sustained inhibition of AP activity throughout the 12-hour dosing interval. Therefore, 120 mg BID is selected as the minimum therapeutic dosage.

Series [2] is described as follows: Phase 1 single ascending and multiple ascending dose studies, PK. The format is in vivo, human. The conditions noted are these: for PK exposures versus dose: healthy volunteers.
In another series the test system is plasma Bb. Description: Biomarkers of AP activity in vivo (plasma Bb levels).
In the next series the target is FD (complement factor D) (Homo sapiens, UniProt P00746). Description: Inhibition of factor D.
Series [3] can be described thus: Safety and safety margin of multiple dose regimens versus NOAEL exposures from nonclinical chronic toxicology studies. The format is in vivo, human. The conditions noted are these: multiple dose study. As for the experimental part: as §1

Sequence of FD (complement factor D) (P00746 26-253): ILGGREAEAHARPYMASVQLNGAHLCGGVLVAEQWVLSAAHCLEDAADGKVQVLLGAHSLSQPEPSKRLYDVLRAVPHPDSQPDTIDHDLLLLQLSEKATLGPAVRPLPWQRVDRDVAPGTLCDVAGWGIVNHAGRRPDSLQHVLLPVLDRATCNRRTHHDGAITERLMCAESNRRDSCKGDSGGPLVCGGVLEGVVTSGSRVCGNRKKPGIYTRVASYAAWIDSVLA

On to `CC(=O)c1nn(CC(=O)N2[C@H](C(=O)Nc3nc(Br)ccc3C)C[C@@]3(C)C[C@@H]23)c2ccc(-c3cnc(C)nc3)cc12` [Compound 1, vemircopan], for which, in series [1] (Homo sapiens, 120 mg BID, sustained throughout the 12-hour dosing interval), the inhibition at 120 mg is > 90%. Further, the inhibition at 200 mg in series [1] (Homo sapiens, 200 mg BID, sustained throughout the 12-hour dosing interval) is > 90%. In addition, the “PD activity as determined by AP inhibition in the AP Wieslab assay” value in series [1] (healthy volunteers, Phase 1) is on record as “increased with increasing exposure”. For the same compound, the “inhibition of complement AP activity in vivo” value in series [1] (in vivo) is given as “dose dependent inhibition”. For the same compound, the “variability in the PK and PD data and PK/PD relationship” value in series [2] (Phase 1 healthy volunteers) is reported as “large variabilities”. Also, the “PK exposures versus dose” value in series [2] (following single doses) was “increased dose proportionally”. Further, in series [2] (multiple doses at steady state, 40 mg BID to 200 mg BID), the “PK exposures versus dose” value is “greater than dose proportional manner”. For the same compound, the “plasma Bb levels following administration” value with plasma Bb is on record as “significant dose-dependent reductions”. The “inhibition of FD” value at FD (complement factor D) is reported as “potent inhibitor”. Besides, in series [3] (120 mg BID), the “safety and effectiveness of dosage regimen” value was “safe and effective”; the “safety margin in AUC0-24 over exposures at NOAEL” value is ≥ 10 fold; the “safety margin in Cmax over exposures at NOAEL” value is recorded as ≥ 10 fold. For the same compound, in series [3] (200 mg BID), the “safety and effectiveness of dosage regimen” value was “safe and effective”; the “safety margin in AUC0-24 over exposures at NOAEL” value is given as ≥ 10 fold; the “safety margin in Cmax over exposures at NOAEL” value was ≥ 10 fold.
